Data set [1] deals with PKK protein. The data set can be described thus: PKK protein in cynomolgus monkey plasma by ELISA (Example 8). In kind it is in vivo. The following applies: 40 mg/kg sc. As for the experimental part:
Approximately 0.9 mL of blood was collected each time from all available animals at pre-dose, day 17, day 31, day 45, day 59, and day 73, and placed in tubes containing 3.2% sodium citrate. The tubes were centrifuged (3000 rpm for 10 min at room temperature) to obtain plasma. PKK protein levels were measured in the plasma by ELISA. The results are presented in Table 52, expressed as percentage inhibition compared to the PBS control levels.
Background: An ELISA detects its analyte on a solid surface through an enzyme-linked reagent.

The conditions of data set [2]: cynomolgus monkey, in vivo, sc, 40 mg/kg.
Description: (§1) Prior to the study, the monkeys were kept in quarantine for a 30-day period, during which the animals were observed daily for general health. The monkeys were 2-4 years old and weighed between 2 and 4 kg. Ten groups of four randomly assigned male cynomolgus monkeys each were injected subcutaneously with ISIS oligonucleotide or PBS. PBS solution or ISIS oligonucleotides at a dose of 40 mg/kg were administered initially with a loading regimen consisting of four doses on the first week of the study (days 1, 3, 5, and 7), followed by a maintenance regimen consisting of once weekly administration starting on Day 14 (weeks 2 to 13). Subcutaneous injections were performed in clock-wise rotations at 4 sites on the back; one site per dose. The injection sites were delineated by tattoo, while sedated using ketamine, and were separated by a minimum of 3 cm.
To evaluate the effect of ISIS oligonucleotides on hepatic function, the monkeys were fasted overnight. Approximately, 1.5 mL of blood samples were collected from all the study groups. Blood was collected in tubes without anticoagulant for serum separation. The tubes were kept at room temperature for a minimum of 90 min and then centrifuged at 3,000 rpm for 10 min. Levels of various liver function markers were measured using a Toshiba 120FR NEO chemistry analyzer (Toshiba Co., Japan).
The conditions of data set [3]: cynomolgus monkey, in vivo, sc, 40 mg/kg. The source holds these as a separate data set.
Description: as §1
To evaluate any effect of ISIS oligonucleotides in cynomolgus monkeys on hematologic parameters, blood samples of approximately 1.2 mL of blood was collected pre-dose and on day 87 or day 88 from each of the available study animals in tubes containing K2-EDTA. Samples were analyzed for red blood cell (RBC) count, white blood cells (WBC) count, platelet count, hemoglobin content and hematocrit, using an ADVIA2120i hematology analyzer (SIEMENS, USA).
For data set [4] the following is noted: cynomolgus monkey, in vivo, sc, 40 mg/kg. The source holds these as a separate data set.
Description: as §1
To evaluate the effect of ISIS oligonucleotides on kidney function, the monkeys were fasted overnight. Approximately, 1.5 mL of blood samples were collected from all the study groups. Blood was collected in tubes without anticoagulant for serum separation. The tubes were kept at room temperature for a minimum of 90 min and then centrifuged at 3,000 rpm for 10 min. Levels of BUN and creatinine were measured using a Toshiba 120FR NEO chemistry analyzer (Toshiba Co., Japan).
For data set [5] the following is noted: cynomolgus monkey, in vivo, sc, 40 mg/kg. The source holds these as a separate data set.
Description: as §1
Kidney function was also assessed by urinalysis. Fresh urine from all animals was collected using a clean cage pan on wet ice. Food was removed overnight the day before fresh urine collection was done but water was supplied. The total protein and creatinine levels were measured using a Toshiba 120FR NEO automated chemistry analyzer (Toshiba Co., Japan) and the protein to creatinine ratio was calculated.
The conditions of data set [6]: cynomolgus monkey, in vivo, sc, 40 mg/kg. The source holds these as a separate data set.
Data set [7] can be described thus: Tolerability / clinical observation of cynomolgus monkeys (Example 8). The following applies: cynomolgus monkeys, 40 mg/kg s.c. In kind it is in vivo, cynomolgus monkey. As for the experimental part:
Cynomolgus monkeys were treated with ISIS antisense oligonucleotides selected from studies described above. Antisense oligonucleotide efficacy and tolerability were evaluated. The human antisense oligonucleotides tested are cross-reactive with the rhesus genomic sequence (GENBANK Accession No. NW_001118167.1 truncated from nucleotides 2358000 to 2391000 and designated herein as SEQ ID NO: 18).
During the study period, the monkeys were observed a minimum of once daily for signs of illness or distress. Any animal experiencing more than momentary or slight pain or distress due to the treatment, injury or illness was promptly reported to the responsible veterinarian and the Study Director. Any animal in poor health or in a possible moribund condition was identified for further monitoring and possible euthanasia. […] The protocols described in the Example were approved by the Institutional Animal Care and Use Committee (IACUC).

Take “ISIS 547455: antisense oligonucleotide targeting nucleobases 30570-30610 of SEQ ID NO: 10; sequence in a table not shown (ATATCATGATTCCCTTCTGA; 5-10-5 MOE gapmer, further chemistry not given here)”: in data set [1] (Day 17), the “PKK protein level reduction (%) in plasma relative to control levels” value came out at 26%. In addition, the “PKK protein level reduction (%) in plasma relative to control levels” value in data set [1] (Day 31) is listed as 33%. The “PKK protein level reduction (%) in plasma relative to control levels” value in data set [1] (Day 45) is listed as 43%. In addition, the “PKK protein level reduction (%) in plasma relative to control levels” value in data set [1] (Day 59) stood at 58%. Further, the “PKK protein level reduction (%) in plasma relative to control levels” value in data set [1] (Day 73) is 58%. Besides, in data set [2], the ALT came to 61 IU/L, the AST is recorded as 56 IU/L and the Albumin was 3.8 g/dL. In data set [3], this substance gave an HCT of 34%, a Hemoglobin of 10.2 g/dL, a Platelets of 448000 µL⁻¹ and an RBC of 4.5e+06 µL⁻¹. Further, the WBC in data set [3] is 13000 µL⁻¹. Moreover, in data set [4], the “Plasma BUN” value is given as 29.4 mg/dL and the “Plasma Creatinine” value is 0.9 mg/dL. Moreover, in data set [5], the Urine protein/creatinine ratio is reported as 0.70. For the same substance, in data set [6], the “C3 (% of baseline)” value is on record as 64 % of baseline and the CRP is listed as 1.9 mg/dL.

With “ISIS 547927: antisense oligonucleotide targeting human PKK; sequence in a table not shown (ATGGTCCGACACACAA; deoxy, MOE and cEt modifications, further chemistry not given here)”, in data set [1] (Day 17), the “PKK protein level reduction (%) in plasma relative to control levels” value worked out at 8%. Besides, the “PKK protein level reduction (%) in plasma relative to control levels” value in data set [1] (Day 31) came out at 0%. For the same substance, the “PKK protein level reduction (%) in plasma relative to control levels” value in data set [1] (Day 45) is 15%. Also, the “PKK protein level reduction (%) in plasma relative to control levels” value in data set [1] (Day 59) is 10%. The “PKK protein level reduction (%) in plasma relative to control levels” value in data set [1] (Day 73) came to 18%. Further, in data set [2], the ALT was 61 IU/L, the AST is 59 IU/L and the Albumin was 4.2 g/dL. In data set [3], this substance showed an HCT of 41%, a Hemoglobin of 12.5 g/dL, a Platelets of 461000 µL⁻¹ and an RBC of 5.2e+06 µL⁻¹. The same substance came in with a WBC in data set [3] of 45000 µL⁻¹. Further, in data set [4], the “Plasma BUN” value stood at 22.3 mg/dL and the “Plasma Creatinine” value was determined as 1.0 mg/dL. Also, in data set [5], the Urine protein/creatinine ratio turned out to be 0.04. In data set [6], the “C3 (% of baseline)” value is 73 % of baseline and the CRP is 0.2 mg/dL.

For “ISIS 546828: gapmer targeting human PKK, selected from earlier screens; sequence in a table not shown (ACAGTATCACTGTACTAGTT; gapmer, wing chemistry not given here)”, the “PKK protein level reduction (%) in plasma relative to control levels” value in data set [1] (Day 17) amounted to 0%. The “PKK protein level reduction (%) in plasma relative to control levels” value in data set [1] (Day 31) turned out to be 8%. Besides, the “PKK protein level reduction (%) in plasma relative to control levels” value in data set [1] (Day 45) is given as 23%. In addition, the “PKK protein level reduction (%) in plasma relative to control levels” value in data set [1] (Day 59) is given as 39%. The “PKK protein level reduction (%) in plasma relative to control levels” value in data set [1] (Day 73) was 39%. In data set [2], this substance displayed an ALT of 67 IU/L, an AST of 75 IU/L and an Albumin of 3.7 g/dL. Further, in data set [3], the HCT was found to be 43%, the Hemoglobin is listed as 12.9 g/dL, the Platelets is 408000 µL⁻¹ and the RBC amounted to 6e+06 µL⁻¹. For the same substance, the WBC in data set [3] came to 11000 µL⁻¹. In data set [4], the “Plasma BUN” value is 24.7 mg/dL and the “Plasma Creatinine” value was 0.9 mg/dL. The Urine protein/creatinine ratio in data set [5] came to 0.03. In data set [6], the “C3 (% of baseline)” value is listed as 56 % of baseline and the CRP is listed as 0.6 mg/dL.

On to “ISIS 546251: antisense oligonucleotide targeting nucleobases 27427-27466 of SEQ ID NO: 10; sequence in a table not shown (antisense GGCAAACATTCACTCCTTTA; 5-10-5 MOE gapmer, further chemistry not given here)”, for which the “PKK protein level reduction (%) in plasma relative to control levels” value in data set [1] (Day 17) is given as 71%. Also, the “PKK protein level reduction (%) in plasma relative to control levels” value in data set [1] (Day 31) came to 75%. Besides, the “PKK protein level reduction (%) in plasma relative to control levels” value in data set [1] (Day 45) is reported as 75%. In data set [1] (Day 59), the “PKK protein level reduction (%) in plasma relative to control levels” value was 81%. Moreover, the “PKK protein level reduction (%) in plasma relative to control levels” value in data set [1] (Day 73) worked out at 77%. In data set [2], the ALT was found to be 58 IU/L, the AST turned out to be 51 IU/L and the Albumin amounted to 3.7 g/dL. Further, in data set [3], the HCT amounted to 43%, the Hemoglobin was found to be 12.9 g/dL, the Platelets stood at 419000 µL⁻¹ and the RBC came to 5.7e+06 µL⁻¹. This substance also showed a WBC in data set [3] of 8000 µL⁻¹. Also, in data set [4], the “Plasma BUN” value came out at 25.4 mg/dL and the “Plasma Creatinine” value came to 1.1 mg/dL. In data set [5], the Urine protein/creatinine ratio is listed as 0.12. In data set [6], the “C3 (% of baseline)” value is on record as 62 % of baseline and the CRP was determined as 0.7 mg/dL.

On to “ISIS 546232: antisense oligonucleotide targeting human PKK; sequence in a table not shown (antisense AGGAACTTGGTGTGCCACTT; 5-10-5 MOE gapmer, further chemistry not given here)”, for which the “PKK protein level reduction (%) in plasma relative to control levels” value in data set [1] (Day 17) is on record as 53%. The “PKK protein level reduction (%) in plasma relative to control levels” value in data set [1] (Day 31) came out at 58%. For the same substance, in data set [1] (Day 45), the “PKK protein level reduction (%) in plasma relative to control levels” value is recorded as 72%. Further, in data set [1] (Day 59), the “PKK protein level reduction (%) in plasma relative to control levels” value was determined as 75%. The “PKK protein level reduction (%) in plasma relative to control levels” value in data set [1] (Day 73) is 70%. For the same substance, in data set [2], the ALT turned out to be 140 IU/L, the AST is on record as 63 IU/L and the Albumin is listed as 4.1 g/dL. In data set [3], this substance came in with an HCT of 42%, a Hemoglobin of 12.9 g/dL, a Platelets of 391000 µL⁻¹ and an RBC of 5.4e+06 µL⁻¹. This substance displayed a WBC in data set [3] of 11000 µL⁻¹. In data set [4], the “Plasma BUN” value stood at 22.7 mg/dL and the “Plasma Creatinine” value stood at 1.0 mg/dL. In addition, in data set [5], the Urine protein/creatinine ratio is recorded as 0.03. Further, in data set [6], the “C3 (% of baseline)” value is reported as 50 % of baseline and the CRP is 0.5 mg/dL.

Take “ISIS 547445: gapmer targeting human PKK, selected from earlier screens; sequence in a table not shown (antisense GCCACTATAGATGCGCCAAA; gapmer, wing chemistry not given here)”: in data set [7], the “clinical observation, euthanasia” value is reported as “two monkeys treated with ISIS 547445 were euthanized”.

The values are drawn from US11840686B2, “Modulation of prekallikrein (PKK) expression” (Ionis Pharmaceuticals, Inc., priority 2013, dated 2023).
